According to PubChem BioAssay (NCI):
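Tested at 5 concentrations; 48 h exposure; 96-well plates; endpoints linearly interpolated, else capped at highest concentration. TGI is the concentration that stops growth completely.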

What was measured:
Assay in all cases: NCI tumour cell line growth inhibition, 48 h
[1] = tested on: 786-0 renal
[2] = tested on: A498 renal
[3] = tested on: ACHN renal
[4] = tested on: CAKI-1 renal
[5] = tested on: CCRF-CEM leukemia
[6] = tested on: COLO 205 colon
[7] = tested on: DU-145 prostate
[8] = tested on: EKVX NSCLC
[9] = tested on: HCC-2998 colon
[10] = tested on: HCT-15 colon
[11] = tested on: HL-60(TB) leukemia
[12] = tested on: HOP-62 NSCLC
[13] = tested on: HOP-92 NSCLC
[14] = tested on: HS 578T breast
[15] = tested on: IGROV1 ovarian
[16] = tested on: K-562 leukemia
[17] = tested on: KM12 colon
[18] = tested on: LOX IMVI melanoma
[19] = tested on: M14 melanoma
[20] = tested on: MCF7 breast
[21] = tested on: MDA-MB-231 breast
[22] = tested on: MDA-N
[23] = tested on: MOLT-4 leukemia
[24] = tested on: NCI-H226 lung
[25] = tested on: NCI-H23 lung
[26] = tested on: NCI-H460 lung
[27] = tested on: NCI-H522 lung
[28] = tested on: NCI/ADR-RES ovarian
[29] = tested on: OVCAR-3 ovarian
[30] = tested on: OVCAR-4 ovarian
[31] = tested on: OVCAR-5 ovarian
[32] = tested on: OVCAR-8 ovarian
[33] = tested on: PC-3 prostate
[34] = tested on: RPMI-8226 leukemia
[35] = tested on: RXF 393 renal
[36] = tested on: SF-268 CNS
[37] = tested on: SF-295 CNS
[38] = tested on: SF-539 CNS
[39] = tested on: SK-MEL-2 melanoma
[40] = tested on: SK-MEL-28 melanoma
[41] = tested on: SK-MEL-5 melanoma
[42] = tested on: SK-OV-3 ovarian
[43] = tested on: SN12C renal
[44] = tested on: SNB-19 CNS
[45] = tested on: SR leukemia
[46] = tested on: SW-620 colon
[47] = tested on: TK-10 renal
[48] = tested on: U251 CNS
[49] = tested on: UACC-257 melanoma
[50] = tested on: UO-31 renal

Measured: TGI

CC1(C)CCC[C@]2(C)[C@H]3[C@H](C#N)c4cc(O)c(O)cc4O[C@@]3(C)CC[C@@H]12
> 10 µM: [1] | [2] | [3] | [4] | [5] | [6] | [7] | [8] | [9] | [10] | [11] | [12] | [13] | [14] | [15] | [16] | [17] | [18] | [19] | [20] | [21] | [22] | [23] | [24] | [25] | [26] | [27] | [28] | [29] | [30] | [31] | [32] | [33] | [34] | [35] | [36] | [37] | [38] | [39] | [40] | [41] | [42] | [43] | [44] | [45] | [46] | [47] | [48] | [49] | [50]
